Bounds are passed on as bounds.

What all share (format): biochemical
The target of experiment [1] is T1, ENPP1 (Homo sapiens, UniProt P22413).
T1 sequence (P22413 1-925): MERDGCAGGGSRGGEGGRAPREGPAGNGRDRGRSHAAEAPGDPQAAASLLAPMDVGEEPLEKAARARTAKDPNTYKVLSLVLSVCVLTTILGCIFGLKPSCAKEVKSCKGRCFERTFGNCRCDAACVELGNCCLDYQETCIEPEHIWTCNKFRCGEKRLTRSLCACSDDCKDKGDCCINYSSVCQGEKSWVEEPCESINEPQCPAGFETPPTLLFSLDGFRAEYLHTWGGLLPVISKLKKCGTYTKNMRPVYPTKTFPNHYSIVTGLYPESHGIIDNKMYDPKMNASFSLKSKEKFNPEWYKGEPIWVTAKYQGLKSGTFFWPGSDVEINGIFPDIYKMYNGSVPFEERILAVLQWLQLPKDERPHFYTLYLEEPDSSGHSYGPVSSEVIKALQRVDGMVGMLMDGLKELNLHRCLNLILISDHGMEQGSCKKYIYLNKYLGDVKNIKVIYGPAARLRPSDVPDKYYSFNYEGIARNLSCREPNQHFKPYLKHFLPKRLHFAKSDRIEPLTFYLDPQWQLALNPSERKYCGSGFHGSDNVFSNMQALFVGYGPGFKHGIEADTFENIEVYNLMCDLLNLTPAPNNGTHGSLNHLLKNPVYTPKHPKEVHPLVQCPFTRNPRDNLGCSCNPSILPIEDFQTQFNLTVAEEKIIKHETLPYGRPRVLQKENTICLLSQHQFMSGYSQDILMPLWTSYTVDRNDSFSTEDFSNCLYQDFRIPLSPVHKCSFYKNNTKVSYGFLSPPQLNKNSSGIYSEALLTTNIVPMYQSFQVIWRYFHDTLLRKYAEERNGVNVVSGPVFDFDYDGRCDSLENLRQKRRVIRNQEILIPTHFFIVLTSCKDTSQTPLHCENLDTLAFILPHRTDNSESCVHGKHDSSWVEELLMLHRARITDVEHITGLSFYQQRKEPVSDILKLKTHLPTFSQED
The experiment can be described thus: ENPP1 enzyme assay with AMP-pNP substrate (hydrolysis of ATP analog). The conditions noted are these: AMP-pNP substrate (ATP analog); Ki from IC50 by Cheng-Prusoff; read-out: ENPP1 Inhibition _AMP-pNP: Ki. The method, boiled down:
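Reactions ran 20 min at 37 °C, pH 8.5 Tris buffer with NaCl, CaCl2, ZnCl2, using 300 µM AMP-pNP and 60 ng/well recombinant human ENPP1; inhibitor range 10 µM–30 pM, duplicates.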

For experiment [2], the target named is T1, ENPP1. Put plainly: Substrate selectivity ratio, inhibition of cGAMP hydrolysis versus ATP hydrolysis. Particulars: ratio Ki AMP-pNP / Ki cGAMP. As for the experimental part:
The selectivity ratios for inhibition of cGAMP hydrolysis versus ATP hydrolysis were then calculated as follows: […]

Experiment [3] deals with T1, ENPP1. The experiment can be described thus: Indirect quantitation of 2',3'-cGAMP hydrolysis (AMP-Glo Assay kit). Particulars: cGAMP substrate; Ki from IC50 by Cheng-Prusoff; read-out: ENPP1 Inhibition -cGAMP: Ki.

Take `COc1ccc2c(Oc3ccc(S(N)(=O)=O)cc3)ncnc2c1` [Example 356, 4-((7-methoxyquinazolin-4-yl)oxy)benzene sulfonamide]: the Ki (in general, a dissociation constant, usually derived from enzyme kinetics or from competition with a known ligand) on ENPP1 [1] is 100 to 1000 nM; on ENPP1 [3], below 100 nM. Besides, on ENPP1 [2], the “Substrate Selectivity: Ki_AMP-pNP/Ki_cGAMP” value (from here on “Substrate Selectivity”) was found to be 40.

Consider `COc1ccc2c(-c3ccc(C(C)(C)NS(N)(=O)=O)cc3)ccnc2c1` [Example 357, N-(2-(4-(7-methoxyquinolin-4-yl)phenyl)propan-2-yl)sulfamide], for which the Ki on ENPP1 [1] is 100 to 1000 nM; on ENPP1 [3], below 100 nM. Moreover, the “Substrate Selectivity” value on ENPP1 [2] is given as above 18.

As to `COc1ccc2c(Oc3ccc(S(N)(=O)=O)cc3)c(C)cnc2c1` [Example 359, 4-((7-methoxy-3-methylquinolin-4-yl)oxy)benzene sulfonamide], the values for the Ki at ENPP1 [1] and on ENPP1 [3] were 100 to 1000 nM and below 100 nM, respectively. For the same molecule, the “Substrate Selectivity” value at ENPP1 [2] worked out at 54.

In the case of `COc1ccc2c(Oc3ccc(S(N)(=O)=O)cc3)ccnc2n1` [Example 361, 4-(7-Methoxy-[1,8]naphthyridin-4-yl-oxy)-benzene sulfonamide], the inhibition constant Ki at ENPP1 [1] and at ENPP1 [3] was below 100 nM in each case. Also, the “Substrate Selectivity” value at ENPP1 [2] was found to be 32.

`COc1ccc2c(Oc3ccc(NS(=O)(=O)NN)cc3)ccnc2c1` [Example 362, N-(4-((7-methoxyquinolin-4-yl)oxy)phenyl)hydrazinesulfonamide]: the inhibition constant (Ki) on ENPP1 [1] is above 1000 nM; at ENPP1 [3], 100 to 1000 nM. Besides, the “Substrate Selectivity” value at ENPP1 [2] is reported as above 216.

Turning to `COc1ccc2c(N3CCC4(CC3)CCN(S(N)(=O)=O)C4)ccnc2c1` [Example 363, 8-(7-methoxyquinolin-4-yl)-2,8-diazaspiro[4.5]decane-2-sulfonamide], the inhibitory constant (Ki) at ENPP1 [1] was 100 to 1000 nM; on ENPP1 [3] it was below 100 nM. Moreover, the “Substrate Selectivity” value at ENPP1 [2] was 49.

Turning to `COc1ccc2nccc(N3CCC4(CC3)CCN(S(N)(=O)=O)C4)c2c1` [Example 364, 8-(6-methoxyquinolin-4-yl)-2,8-diazaspiro[4.5]decane-2-sulfonamide], the inhibition constant (Ki) was 100 to 1000 nM on ENPP1 [1] and below 100 nM on ENPP1 [3]. Besides, the “Substrate Selectivity” value at ENPP1 [2] is 43.

Regarding `COc1ccc2c(-c3ccc4c(c3)CN(S(N)(=O)=O)CC4)ccnc2n1` [Example 365, 7-(7-methoxy-1,8-naphthyridin-4-yl)-3,4-dihydroisoquinoline-2(1H)-sulfonamide], the inhibition constant Ki was 100 to 1000 nM on ENPP1 [1] and below 100 nM at ENPP1 [3]. Besides, on ENPP1 [2], the “Substrate Selectivity” value was found to be 18.

As for `COc1cc2nccc(-c3ccc4c(c3)CCN(S(N)(=O)=O)C4)c2cc1OC` [Example 367, 6-(6,7-dimethoxyquinolin-4-yl)-3,4-dihydroisoquinoline-2(1H)-sulfonamide], the Ki on ENPP1 [1] was above 1000 nM; at ENPP1 [3], below 100 nM. In addition, the “Substrate Selectivity” value at ENPP1 [2] is on record as above 35.

`COc1ccc2c(-c3ccc(CN(C)S(N)(=O)=O)cc3)ccnc2c1` [Example 368, N-(4-(7-methoxyquinolin-4-yl)benzyl)-N-methyl sulfamide]: the Ki on ENPP1 [1] was 100 to 1000 nM; at ENPP1 [3], below 100 nM. For the same molecule, on ENPP1 [2], the “Substrate Selectivity” value is reported as above 7.

Regarding `COc1ccc2c(-c3ccc4c(c3)CN(S(N)(=O)=O)CC4)c(C)cnc2c1` [Example 371, 7-(7-methoxy-3-methylquinolin-4-yl)-3,4-dihydroisoquinoline-2(1H)-sulfonamide], the Ki on ENPP1 [1] was above 1000 nM; at ENPP1 [3], below 100 nM. Besides, the “Substrate Selectivity” value on ENPP1 [2] is above 32.

On to `COc1ccc2c(-c3ccc(CNS(N)(=O)=O)c(OC)c3)ccnc2c1` [Example 373, N-(2-methoxy-4-(7-methoxyquinolin-4-yl)benzyl)sulfamide], for which the inhibitory constant (Ki) at ENPP1 [1] is above 1000 nM; at ENPP1 [3] it was 100 to 1000 nM. Besides, at ENPP1 [2], the “Substrate Selectivity” value is above 136.

Consider `COc1ccc2c(-c3ccc(CNS(N)(=O)=O)c(C)c3)ccnc2c1` [Example 374, N-(4-(7-methoxyquinolin-4-yl)-2-methylbenzyl) sulfamide], for which the Ki at ENPP1 [1] is above 1000 nM; on ENPP1 [3] it was below 100 nM. Moreover, the “Substrate Selectivity” value at ENPP1 [2] was above 138.

`COc1ccc2c(N3CCc4cc(NS(N)(=O)=O)cc(F)c43)ccnc2c1` [Example 375, N-(7-fluoro-1-(7-methoxyquinolin-4-yl)indolin-5-yl)sulfamide]: the Ki on ENPP1 [1] and on ENPP1 [3] was below 100 nM throughout. Besides, the “Substrate Selectivity” value on ENPP1 [2] amounted to 25.

Consider `COc1ccc2c(N3CCc4cc(NS(N)(=O)=O)ccc43)ccnc2c1F` [Example 376, N-(1-(8-fluoro-7-methoxyquinolin-4-yl)indolin-5-yl)sulfamide], for which the Ki on ENPP1 [1] was above 1000 nM; on ENPP1 [3] it was 100 to 1000 nM. For the same molecule, the “Substrate Selectivity” value on ENPP1 [2] is above 77.

Consider `COc1ccc2c(Oc3ccc(S(N)(=O)=O)cc3)c(C(F)(F)F)cnc2c1` [Example 377, 4-((7-methoxy-3-(trifluoromethyl)quinolin-4-yl)oxy) benzenesulfonamide], for which the results for the inhibition constant (Ki) on ENPP1 [1] and on ENPP1 [3] were above 1000 nM and 100 to 1000 nM, respectively. Further, at ENPP1 [2], the “Substrate Selectivity” value is recorded as above 89.

For `COc1ccc2c(N3CCc4cc(NS(N)(=O)=O)ccc43)c(C)cnc2c1` [Example 378, N-(1-(7-methoxy-3-methylquinolin-4-yl)indolin-5-yl)sulfamide], the Ki on ENPP1 [1] was 100 to 1000 nM; on ENPP1 [3], below 100 nM. At ENPP1 [2], the “Substrate Selectivity” value turned out to be 42.

In the case of `COc1ccc2c(N3CCc4c3ccc(NS(N)(=O)=O)c4F)ccnc2c1` [Example 379, N-(4-fluoro-1-(7-methoxyquinolin-4-yl)indolin-5-yl)sulfamide], the Ki was 100 to 1000 nM on ENPP1 [1] and below 100 nM at ENPP1 [3]. Also, the “Substrate Selectivity” value at ENPP1 [2] is recorded as above 41.

In the case of `COc1ccc2c(-c3ccc(CNS(N)(=O)=O)cc3)c(F)cnc2c1` [Example 381, N-(4-(7-methoxy-3-Fluoro-quinolin-4-yl)benzyl) Sulfamide], the Ki was 100 to 1000 nM at ENPP1 [1] and below 100 nM at ENPP1 [3]. Besides, the “Substrate Selectivity” value at ENPP1 [2] is recorded as above 38.

Take `COc1ccc2c(Oc3ccc(S(=N)(=O)O)cc3F)ccnc2c1` [Example 382, 3-fluoro-4-((7-methoxyquinolin-4-yl)oxy)benzene sulfonamide]: the inhibitory constant (Ki) was above 1000 nM on ENPP1 [1] and below 100 nM at ENPP1 [3]. Further, on ENPP1 [2], the “Substrate Selectivity” value was above 142.

On to `COc1ccc2c(-n3cnc(CNS(N)(=O)=O)c3)ccnc2c1` [Example 385, N-((1-(7-methoxyquinolin-4-yl)-1H-imidazol-4-yl)methyl)sulfamide], for which the Ki at ENPP1 [1] was above 1000 nM; at ENPP1 [3], below 100 nM. In addition, the “Substrate Selectivity” value at ENPP1 [2] was above 44.

On to `COc1ccc2c(-c3ccc(CNS(N)(=O)=O)cc3)c(C(F)(F)F)cnc2c1` [Example 386, N-(4-(7-methoxy-3-(trifluoromethyl)quinolin-4-yl)benzyl) sulfamide], for which the inhibitory constant (Ki) at ENPP1 [1] is 100 to 1000 nM; at ENPP1 [3] it was below 100 nM. On ENPP1 [2], the “Substrate Selectivity” value is 39.

For the molecule `COc1ccc2c(-c3ccc(CNS(N)(=O)=O)cn3)ccnc2c1` [Example 387, ((6-(7-methoxy quinolin-4-yl)pyridin-3-yl)methyl)sulfamide], the Ki is above 1000 nM on ENPP1 [1] and below 100 nM at ENPP1 [3]. Also, the “Substrate Selectivity” value at ENPP1 [2] is on record as 36.
